Measurements reported in patent US10556879B2, “Retinoid compound, preparation method therefor, intermediates thereof and application thereof” (SHANGHAI INSTITUTE OF ORGANIC CHEMISTRY, CHINESE ACADEMY OF …, priority 2016, dated 2020).
Several values for one entry are separate records, joined by “and”; a condition that tells them apart may be missing. Identical values can stand only once. Entries after “also recorded” stand apart in the source; their conditions may differ. Like-named read-outs stand apart in the source and are kept apart here.

Experiments:
[1] = test system: subcutaneous implantation tumor of B16-F1 melanoma; assay: Subcutaneous implantation model of B16-F1 melanoma in immunocompetent mice; assay type: in vivo, mice (C57BL/6)
Procedure: A subcutaneous implantation model of B16-F1 melanoma in immunocompetent mice (C57BL/6, female, 6-8 weeks) was established to study the inhibitory activity of compound WYC-103 on the tumor in situ. Firstly, B16-F1 cells were incubated within 3D fibrin gel (90-Pa in gel stiffness) that was immersed in culture medium for 5 days, and the desired tumor-repopulating cells were screened. Subsequently, the culture medium was respectively treated with collagenase and neutral protease II, and the tumor-repopulating cells of B16-F1 melanoma were released, then the obtained repopulating cells were transferred to a freshly prepared medium to be re-suspended and maintained at single-cell state.
Six immunocompetent mice were randomly divided into two groups which were respectively the treatment group and the DMSO negative control group. Mice were subcutaneously injected with 30,000 tumor-repopulating cells of melanoma to establish a subcutaneous implantation model of melanoma. Subsequently, Mice were administered via tail vein injection based on the body weight and the blood volume of the mice. From day 0, mice in the treatment group were administrated with WYC-103 once every 2 days at a blood concentration of 10 μM and fed normally, observing the survival of the mice. […] According to the statistical analysis, the tumor volume in the treatment group was only 50% of the control group (FIG. 12).
This experiment was repeated in order to further confirm the inhibitory activity of WYC-103 on subcutaneous implantation tumor of B16-F1 melanoma. In the present experiment, 18 immunocompetent mice (C57BL/6, female, 6-8 weeks) were randomly divided into three groups which were respectively the treatment group, the positive control group (BMS-453 was used as the positive drug) and the DMSO negative control group. Subsequently, Mice were administered via tail vein injection based on the body weight and the blood volume of the mice. From day 0, mice in the treatment group were administrated with WYC-103 once every 2 days at a blood concentration of 10 μM; mice in the positive control group were administered with BMS-453 (WYC-114) as the positive drug in the same route of administration; mice in the negative control group was administered with 0.1% DMSO in a same route of administration.

[2] = test system: metastatic melanoma in the lung; assay: Metastatic melanoma in the lung model, 3000 tumor-repopulating cells via tail vein (WYC-103); assay type: in vivo; details: blood concentration 10 μM
Text: A metastatic melanoma model in the mouse was established to study whether WYC-103 could inhibit metastatic melanoma in the lung thus prevent secondary tumorigenesis. Firstly, 12 normally immunocompetent mice (C57BL/6, female, 6-8 weeks) were randomly selected and injected via the tail vein with 3000 tumor-repopulating cells of melanoma to establish a metastatic melanoma model in the mouse. The model mice were randomly divided into two groups which were respectively the treatment group and the negative control group. The mice were administered with WYC-103 (the treatment group) and DMSO (the negative control group) via tail vein injection once every 2 days at a blood concentration of 10 μM based on the body weight and the blood volume of the mice.

[3] = test system: tumor-repopulating cells of B16-F1 melanoma; assay: Inhibitory activity on proliferation of tumor-repopulating cells (TRCs) of B16-F1 melanoma in 3D fibrin gel; assay type: cell-based; details: for IC50: colony tumor volume, read-out: IC50 of inhibition on TRCs of B16-F1 melanoma/μM
Procedure: B16-F1 Melanoma cells were incubated with 3D fibrin gel medium (90-Pa) for 5 days, and the desired tumor-repopulating cells of melanoma were screened (Nat. Mater. 2012, 11, 734). Subsequently, the culture medium was respectively treated with collagenase and neutral protease II, and the tumor-repopulating cells of B16-F1 melanoma were released, then the obtained repopulating cells were transferred to a freshly prepared medium to be resuspended and maintained at single-cell state. The tumor-repopulating cells of B16-F1 melanoma were inoculated in 3D fibrin gel medium (90-Pa) for 5 days, with 0.1% DMSO as the negative control group, Tazarotene and Bexarotene as the positive control drugs respectively, […] for 5 days. The colony tumor size was measured and calculated, and the inhibition rate of each drug on the tumor-repopulating cells of B16-F1 melanoma was calculated. The results of inhibitory activity of the compound of the present invention on the proliferation of tumor-repopulating cells of B16-F1 melanoma were shown in Table 2 below.

[4] = test system: tumor-repopulating cells of A2780 ovarian cancer; assay: Inhibition of proliferation of tumor-repopulating cells, colony tumor volume in 3D fibrin gel; assay type: cell-based, human; details: A2780 TRCs; for volume of colony tumor relative to None group: 10 μM
Procedure: (§1) Therefore, we further studied the inhibitory activity of this compound against tumor-repopulating cells of six other kinds of human tumor, including A549 lung cancer cell, MCF-7 breast cancer cell, MDA-MB-435S melanoma cell, A2780 ovarian cancer cell, Hs-746T gastric cancer cell, MDA-MB-231 breast cancer cell.
(§2) The above cancer cells were incubated with 3D fibrin gel medium (90-Pa) for 5 days, and the desired tumor-repopulating cells were screened. Subsequently, the culture medium was respectively treated with collagenase and neutral protease II, and the tumor-repopulating cells of B16-F1 melanoma were released, then the obtained repopulating cells were transferred to a freshly prepared medium to be resuspended and maintained at single-cell state. The tumor-repopulating cells of individual tumor were inoculated in 3D fibrin gel medium (90-Pa) for 5 days, with 0.1% DMSO as the negative control group (represented by DMSO group in FIGS. 3-8), the drug-free group as vehicle control group (represented by None group in FIGS. 3-8), and the study was performed by beginning administrating on the day 0 and the 3rd day respectively, and the colony tumor volume was measured and calculated.
as §2, with “The above human tumor cells were” for “The above cancer cells were”, “cells of B16-F1 melanoma were inoculated” for “cells of individual tumor were inoculated”, “group in FIG. 9), the drug-free” for “group in FIGS. 3-8), the drug-free”, “measured and calculated, beginning administrating from the 3rd day at a concentration of 0.1 μM, 1.0 μM, and 10 μM respectively, the colony tumor volume was measured and calculated.” for “measured and calculated.”

[5] = test system: tumor-repopulating cells of MDA-MB-231 breast cancer; assay: as above; assay type: cell-based, human; details: MDA-MB-231 TRCs; for volume of colony tumor relative to None group: 10 μM
Procedure: as §1, §2
as §2, with “The above human tumor cells were” for “The above cancer cells were”, “cells of B16-F1 melanoma were inoculated” for “cells of individual tumor were inoculated”, “group in FIG. 9), the drug-free” for “group in FIGS. 3-8), the drug-free”, “measured and calculated, beginning administrating from the 3rd day at a concentration of 0.1 μM, 1.0 μM, and 10 μM respectively, the colony tumor volume was measured and calculated.” for “measured and calculated.”

[6] = test system: tumor-repopulating cells of A549 lung cancer; assay: as above; assay type: cell-based, human; details: A549 TRCs
Procedure: as §1, §2

[7] = test system: tumor-repopulating cells of Hs-746T gastric cancer; assay: as above; assay type: cell-based, human; details: Hs-746T TRCs
Procedure: as §1, §2

[8] = test system: tumor-repopulating cells of MDA-MB-435S melanoma; assay: as above; assay type: cell-based, human; details: MDA-MB-435S TRCs
Procedure: as §1, §2

[9] = test system: tumor-repopulating cells of MCF-7 breast cancer; assay: as above; assay type: cell-based, human; details: MCF-7 TRCs
Procedure: as §1, §2

B16-F1 melanoma cells = assay: In vitro effect on B16-F1 melanoma cells (proliferation, apoptosis) in the toxicity study; assay type: cell-based; details: 10 μM
Procedure: (§3) The 3T3 mouse embryonic fibroblast cells and B16-F1 melanoma cells were used as the model to study in vitro toxicity of WYC-209 and WYC-331 respectively. The effect of compound WYC-209 and WYC-331 on the proliferation of 3T3 mouse embryonic fibroblast cells and B16-F1 melanoma cells were studied at a concentration of 10 μM.

[10] = test system: 3T3 mouse embryonic fibroblast cells; assay: In vitro toxicity on normal cells (proliferation, apoptosis); assay type: cell-based; details: 10 μM
Procedure: as §3

[11] = test system: B16-F1 metastatic melanoma in the lung; assay: B16-F1 metastatic melanoma in the lung model, 30,000 tumor-repopulating cells via tail vein (WYC-209); assay type: in vivo, mice (C57BL/6); details: for mice that suffered pulmonary metastatic melanoma: 30th day, 8 mice
Procedure: This experiment was performed to study whether WYC-209 could inhibit the metastasis of melanoma to the lung thus prevent secondary tumorigenesis. The B16-F1 cells were incubated with 3D fibrin gel medium (90-Pa) for 5 days, and the desired tumor-repopulating cells were screened. Subsequently, the culture medium was respectively treated with collagenase and neutral protease II, and the tumor-repopulating cells were released, then the obtained repopulating cells were transferred to a freshly prepared medium to be re-suspended and maintained at single-cell state. Then 24 immunocompetent mice (C57BL/6, female, 6-8 weeks) were randomly selected and divided into three groups which were respectively low-dose group (1.0 μM), high-dose group (10 μM) and DMSO negative control group, with 8 mice per group. Subsequently, the mice were injected via the tail vein with 30,000 tumor-repopulating cells of melanoma to establish a B16-F1 metastatic melanoma model in the mouse. Subsequently, Mice were administered via tail vein injection based on the body weight and the blood volume of the mice. From the 5th day on, mice in the treatment group were administrated with WYC-209 once every 2 days at a blood concentration of 1.0 μM and 10 μM; mice in the DMSO group was administered with 0.1% DMSO in a same route of administration as negative control. At this time, there was no significant difference in the body weight between the groups, the mice were fed normally, observing the survival of the mice.

[12] = Mus musculus, B16-F1, 120 h, 10 μM, incubated 5 days, colony tumor size, read-out: Inhibition rate on TRCs of B16-F1 melanoma at a concentration of 10 μM (%)
[13] = Mus musculus, B16-F1, 10 μM (Table 3), read-out: Inhibition rate on TRCs of B16-F1 melanoma at a concentration of 10 μM/%
[14] = Mus musculus, B16-F1, dose-response curve

## CCOC(=O)c1ccc(C#Cc2ccc3c(c2)C(C)(C)CCS3)cc1O [WYC-103, ethyl 4-((4,4-dimethylthiochroman-6-yl)ethynyl)-2-hydroxybenzoate]
[1]; first experiment, after 19 days, tail vein injection every 2 days, blood concentration 10 μM
  tumor volume in the treatment group relative to the control group: 50%
[1]; mouse, in vivo
  body weight of the mice: stable and balanced
  dissection of peritoneal/abdominal cavity: No abnormalities
  toxic side effects: no obvious toxic side effects
[1]; repeated experiment, 26th day, tail vein injection every 2 days, blood concentration 10 μM
  tumor volume in the treatment group relative to the negative control group: 50%
[1]; repeated experiment, on the 26th day
  mice died: 50%
[2]
  average lung weight relative to the negative control group: ⅓
[2]; whole experiment
  toxic side effects: no obvious toxic side effects
[2]; tail vein injection every 2 days
  efficiency of preventing the occurrence of metastatic melanoma in the lung: 100%
[3]; [12]
  inhibition at 10 µM: 86.8%
[3]; [13]
  inhibition at 10 µM: 86.8%

## CCOC(=O)c1cnc(C#Cc2ccc3c(c2)C(C)(C)CC[S+]3[O-])nc1 (stereo not shown) [WYC-209, ethyl 2-((4,4-dimethyl-1-oxothiochroman-6-yl)ethynyl)pyrimidin-5-carboxylate]
[4]; 1.0 μM
  volume of tumor colony relative to None group: 25-30%
[4]
  volume of colony tumor relative to None group: less than 10%
[5]; 1.0 μM
  volume of tumor colony relative to None group: 25-30%
[5]
  volume of colony tumor relative to None group: less than 10%
[6]; 1.0 μM
  volume of tumor colony relative to None group: 25-30%
[6]; 10 μM
  volume of colony tumor relative to None group: less than 10%
[7]
  growth trend of colony tumor: reverse the growth trend of colony tumor
[7]; 1.0 μM
  volume of tumor colony relative to None group: 25-30%
[7]; 10 μM
  volume of colony tumor relative to None group: less than 10%
[8]; 1.0 μM
  volume of tumor colony relative to None group: 25-30%
[8]; 10 μM
  volume of colony tumor relative to None group: less than 10%
[9]; 1.0 μM
  volume of tumor colony relative to None group: 25-30%
[9]; 10 μM
  volume of colony tumor relative to None group: less than 10%
B16-F1 melanoma cells
  effect on proliferation of B16-F1 melanoma cells: significantly block the growth
  induction of apoptosis of B16-F1 melanoma cells: significant cell apoptosis
[10]
  effect on proliferation of 3T3 mouse embryonic fibroblast cells: did not affect the proliferation; also recorded: no effect on the growth of 3T3 cell clones
  induction of apoptosis of 3T3 mouse embryonic fibroblast cells: did not induce apoptosis; also recorded: could not induce apoptosis
[11]; 1.0 μM treatment group
  abnormalities in the liver and stomach: no abnormalities found in the liver and stomach
  mice that suffered pulmonary metastatic melanoma: 50%
[11]; 10 μM treatment group
  abnormalities in the liver and stomach: no abnormalities found in the liver and stomach
  mice that suffered pulmonary metastatic melanoma: 12.5%
[11]; blood concentration 1.0 μM
  efficiency of preventing metastasis of repopulating cells of melanoma to the lung: 50%
[11]; blood concentration 10 μM
  efficiency of preventing metastasis of repopulating cells of melanoma to the lung: 87.5% and 87%
[11]; whole experiment
  toxic side effects: no obvious toxic side effects
[3]; [12]
  inhibition at 10 µM: 98.8%
[3]; [14]
  IC50: 0.25 µM
[3]; [13]
  inhibition at 10 µM: 98.8%
[3]; dose-response curve
  IC50: 0.19 µM

## CCOC(=O)c1cnc(C#Cc2ccc3c(c2)C(C)(C)CCC3(C)C)nc1 [WYC-331, ethyl 2-((5,5,8,8-tetramethyl-5,6,7,8-tetrahydronaphth-2-yl)ethynyl)pyrimidin-5-carboxylate]
[4]
  volume of colony tumor relative to None group: 10-15%
[5]
  growth trend of colony tumor: reverse the growth trend of colony tumor
  volume of colony tumor relative to None group: 10-15%
B16-F1 melanoma cells
  effect on proliferation of B16-F1 melanoma cells: strongly inhibited the proliferation
  induction of apoptosis of B16-F1 melanoma cells: did not exhibit significant apoptosis-inducing effect
[10]
  effect on proliferation of 3T3 mouse embryonic fibroblast cells: no effect on the growth of 3T3 cell clones
  induction of apoptosis of 3T3 mouse embryonic fibroblast cells: did not exhibit significant apoptosis-inducing effect; also recorded: could not induce apoptosis
[3]; [12]
  inhibition at 10 µM: 96%
[3]; [14]
  IC50: 0.017 µM
[3]; [13]
  inhibition at 10 µM: 96%
